{"source": "patent US20060094003A1", "about": "“Acetylcholine-dependent current as a novel ionic target for atrial fibrillation” (priority 2004, published 2006)", "test_system": "AT-remodeled canine LA", "assay": "Action potential duration in AT-remodeled canine LA preparations", "conditions": "for effect on action potential duration (in words): AT-remodeled canine LA", "procedure": "Adult dogs were divided into control and AT groups. AT dogs were initially anesthetized with diazepam (0.25 mg/kg IV), ketamine (5.0 mg/kg IV), and halothane (1% to 2%) for transvenous insertion of right ventricular (RV) and right atrial (RA) unipolar pacing leads connected to ventricular and atrial pacemakers implanted in the neck. Pacing began 24 hours after pacemaker implantation. AV block was created by radiofrequency catheter ablation and the RV demand-pacemaker was programmed to 80 bpm. The RA was then tachypaced (400 bpm) for 7-13 days.\nOn study days, dogs were anesthetized with pentobarbital (30 mg·kg^−1 I.V.) and artificially ventilated. Hearts and adjacent lung tissue were excised via a left thoracotomy and immersed in oxygenated Tyrode solution. For cell isolation, the proximal circumflex coronary artery was cannulated and distal ends of PV myocardial sleeves were marked with silk thread prior to enzyme perfusion with collagenase (100 U mL^−1, Worthington, type II), to facilitate identification after enzymatic digestion. PVs were well-perfused and single cardiomyocytes were isolated from all PVs. After isolation, cells were stored at 4° C. and studied within 12 hours.\nFor standard-microelectrode experiments and atrial-tachyarrhythmia induction, intact tissue preparations including the LA and adjacent PVs were mounted in a Plexiglas chamber and perfused via the left circumflex coronary artery with oxygenated Kreb's solution at 36±0.5° C. Fine-tipped microelectrodes (resistance 15-20 MΩ when filled with 3-mol/L KCL) coupled to a high-input impedance amplifier were used to record Action Potentials.\nTable 1 quantifies this increase in duration by presenting the time required for action potentials in 8 dogs to reach 90%, 50% and 25% repolarization. Results are averages over 24 and 23 action potentials respectively for the pre-TQ data and the post-TQ data.", "data": [{"substance": "tertiapin-Q", "values": [{"measurement": "APD25", "setting": "2 Hz, AT-remodeled preparations, post-TQ, pre-TQ 15.9 ± 1.7", "result": "39.0 ± 2.5", "unit": "ms"}, {"measurement": "APD50", "setting": "2 Hz, AT-remodeled preparations, post-TQ, pre-TQ 44.4 ± 2.3", "result": "87.4 ± 2.7", "unit": "ms"}, {"measurement": "APD90", "setting": "2 Hz, AT-remodeled preparations, post-TQ, pre-TQ 100.1 ± 2.6", "result": "162.2 ± 4.2", "unit": "ms"}, {"measurement": "effect on action potential duration (in words)", "result": "greatly increases"}, {"measurement": "effect on action potential duration (in words)", "setting": "listed as TQ", "result": "prominently increased"}]}]}
